Consider three compounds from ChEMBL document CHEMBL3632519, “Withanolides and Sucrose Esters from Physalis neomexicana” (J Nat Prod, 2015).

One assay deals with MCF7. Briefly: Cytotoxicity against human MCF7 cells by MTT assay. In kind it is functional, cell-based.
For another assay, the system named is MDA-MB-231. Briefly: Cytotoxicity against human MDA-MB-231 cells by MTT assay. It counts as functional, cell-based. In general terms: Tetrazolium assays rely on reduction of a dye to a coloured formazan, in cell work by metabolically active cells.

The term IC50 denotes the point on the concentration scale where inhibition reaches its midpoint. Read a high IC50 as a need for much substance. Consider `CC(=O)O[C@H]1C[C@H]([C@@](C)(O)[C@@H]2C[C@H](C)[C@@H](C)C(=O)O2)[C@@]2(C)CC[C@H]3[C@@H](C[C@H]4O[C@]45CC=CC(=O)[C@]35C)[C@@]12O`, for which the IC50 came out at 6300 nM in the assay with MCF7 and 1700 nM with MDA-MB-231.
In the assay on MDA-MB-231, `CC1=C(CO)C(=O)O[C@@H]([C@@H](C)[C@H]2CC[C@H]3[C@@H]4C[C@H]5O[C@]56[C@@H](O)C=CC(=O)[C@]6(C)[C@H]4CC[C@]23C)C1` [WITHAFERIN A] displayed a 50% inhibitory concentration (IC50) of 500 nM.
As for `CC1=C(C)C(=O)O[C@@H]([C@@H](C)[C@H]2CC[C@H]3[C@@H]4C[C@H]5O[C@]56[C@@H](O)C=CC(=O)[C@]6(CO)[C@H]4CC[C@]23C)C1` [WITHALONGOLIDE B], the IC50 in the assay on MCF7 is 800 nM; with MDA-MB-231 it was 200 nM.
